Here are results for 40 compounds from the Deep4Chem optical property database.

The nature of this data set: solvent given as SMILES.

With `F[B-]1(F)n2c(cc(Br)c2Br)C(c2ccccc2)=C2C=C(Br)C(Br)=[N+]21`, the emission maximum (in ClC(Cl)Cl) was found to be 570 nm.

With `CCOC(=O)c1c(-c2cc3ccccc3oc2=O)nn(-c2cccc(F)c2)c1C(=O)OCC`, the emission maximum (in ClCCl) came out at 401 nm.

With `CCCCCCCCn1c2cc(/C=C/c3ccc(N(c4ccccc4)c4ccccc4)cc3)ccc2c2cc3c(cc21)c1ccc(/C=C/c2ccc(N(c4ccccc4)c4ccccc4)cc2)cc1n3CCCCCCCC`, the emission maximum (in Cc1ccccc1) is on record as 473 nm.

Compound `CCCCCCCCCCOc1ccc(C#Cc2cc3c(C#Cc4ccc(OCCCCCCCCCC)cc4)c(C#Cc4ccc(OCCCCCCCCCC)cc4)c4cc(C#Cc5ccc(OCCCCCCCCCC)cc5)cc5c(C#Cc6ccc(OCCCCCCCCCC)cc6)c(C#Cc6ccc(OCCCCCCCCCC)cc6)c(c2)c3c45)cc1` yielded an emission maximum (in ClCCl) of 466 nm.

As for `C#Cn1c(-c2cc(-c3nc4ccc(C)cc4n3C#C)cc(-c3nc4ccc(C)cc4n3C#C)c2)nc2ccc(C)cc21`, the emission maximum (in C1CCOC1) amounted to 389.5 nm.

`CC(C)(C)NC(=O)c1ccc(-c2cc3ccccc3o2)c2ccc3c4ccccc4c4ccccc4c3c12` returned an emission maximum (in ClCCl) of 441 nm.

In the case of `CCC(C)(C)c1ccc(-c2ccc3c(c2)C(CCOC)(CCOC)c2cc4c(cc2-3)C(CCOC)(CCOC)c2cc(-c3ccc(C(C)(C)CC)cc3)ccc2-4)cc1`, the emission maximum (in C1CCCCC1) worked out at 390 nm.

Take `CCCCN(CCCC)c1ccc(C#Cc2cc(C#Cc3ccc(C(F)(F)F)cc3)c(C#Cc3ccc(N(CCCC)CCCC)cc3)cc2C#Cc2ccc(C(F)(F)F)cc2)cc1`: the emission maximum by setting is: (in ClCCl) 546 nm; (in c1ccccc1) 506 nm.

Take `CN(C)c1ccc(-c2ccc(-c3cc(N4CCCCC4)c(C#N)c4c3-c3ccccc3CC4)s2)cc1`: the emission maximum stood at 491 nm (in C1CCCCC1); 537 nm (in C1CCOC1); 590 nm (in CN(C)C=O); 570 nm (in CS(C)=O); 515 nm (in Cc1ccccc1); 540 nm (in ClC(Cl)Cl).

Compound `COC(=O)C1=C(C(=O)OC)C2=C[C@H]3c4ccccc4[C@]2(S1)c1ccccc13` gave an emission maximum (in C1CCOC1) of 477 nm; an emission maximum (in CC#N) of 489 nm; an emission maximum (in CCCCCC) of 465 nm; an emission maximum (in CCOCC) of 473 nm; an emission maximum (in CO) of 500 nm; an emission maximum (in ClCCl) of 488 nm. For the same compound, the emission maximum (in c1ccccc1) is on record as 477 nm.

For the compound `CCCCCCCCn1nnc(-c2ccc(C#Cc3ccc(C#Cc4ccc(-c5nnn(CCCCCCCC)n5)cc4)c4nc5c6ccccc6c6ccccc6c5nc34)cc2)n1`, the emission maximum is, setting by setting: (in C1CCOC1) 495 nm; (in Cc1ccccc1) 488 nm; (in ClCCl) 502 nm.

Where the note is “in ClCCl”, `COc1ccc(-c2ccc3c(c2)C=Cc2cc(-c4ccc(OC)cc4)ccc2[Si]3(C)C)cc1` returned an emission maximum of 391 nm.

As to `CCN(CC)c1ccc2c(c1)OC1=C(/C=C/C3=[N+](C)c4ccc5ccccc5c4C3(C)C)CCCC1=C2c1ccccc1C(=O)O`, the emission maximum was 763 nm (in CC#N), 750 nm (in CCO), 753 nm (in CO) and 761 nm (in ClC(Cl)Cl).

`O=c1[nH]c(=O)n([C@@H]2O[C@H](CO)[C@@H](O)[C@H]2O)cc1-c1cc2ccccc2s1` gave an emission maximum (in C1COCCO1) of 435 nm, an emission maximum (in CC#N) of 443 nm, an emission maximum (in CO) of 446 nm and an emission maximum (in O) of 458 nm.

Turning to `CN(C)c1cc2oc3cc(N(C)C)c(F)cc3c(=O)c2cc1F`, the emission maximum (in CCO) was found to be 446 nm.

For `CN(C)c1ccc(C#Cc2cc(C#Cc3ccc(N(C)C)cc3)c3ccc4c(C#Cc5ccc(C(F)(F)F)cc5)cc(C#Cc5ccc(N(C)C)cc5)c5ccc2c3c54)cc1`, the emission maximum (in ClCCl) is on record as 576 nm.

For the compound `CCCCC1(CCCC)c2cc(C#Cc3ccc4ccc5cccc6ccc3c4c56)ccc2-c2ccc(C#Cc3ccc4ccc5cccc6ccc3c4c56)cc21`, the emission maximum runs as follows: (in C1CCCCC1) 433 nm; (in C1CCOC1) 437 nm; (in CC#N) 433 nm; (in CCOC(C)=O) 433 nm; (in CN(C)C=O) 441 nm; (in Cc1ccccc1) 438 nm. For the same compound, the emission maximum by setting is: (in ClC(Cl)Cl) 439 nm; (in ClCCl) 439 nm.

Consider `N#C/C(=C/Nc1ccc(C#N)cc1)c1nc(-c2ccccc2)cs1`, for which the emission maximum (in CCO) is listed as 434 nm, the emission maximum (in CN(C)C=O) came out at 436 nm, the emission maximum (in Cc1ccccc1) amounted to 438 nm and the emission maximum (in ClCCl) was 437 nm.

Turning to `COC(=O)C[C@H](Cc1c[nH]c2ccccc12)NC(=O)[C@H](CC(=O)N[C@@H](CC1=CCc2ccccc21)C(=O)OC)NC(=O)[C@H](Cc1c[nH]c2ccccc12)NC(=O)OC(C)(C)C`, the emission maximum (in CC#N) was 334 nm, the emission maximum (in CCOC(C)=O) is given as 330 nm and the emission maximum (in CO) was determined as 338 nm.

`C1=C(c2ccccc2)S[C@]23C1=C(c1ccccc1)[C@H](c1ccccc12)c1ccccc13`: the emission maximum (in ClCCl) amounted to 491 nm.

In turn, `CCCCCCn1c2cc(/C=C/c3cccs3)ccc2c2ccc(/C=C/c3cccs3)cc21` yielded an emission maximum (in ClC(Cl)Cl) of 427.35 nm.

Compound `c1csc(-c2cnc(-c3cccs3)c3nonc23)c1` came in with an emission maximum (in C1CCCCC1) of 567 nm; an emission maximum (in CC(C)=O) of 612 nm; an emission maximum (in CCCCCC) of 564 nm; an emission maximum (in CCCO) of 611 nm; an emission maximum (in CCO) of 614 nm; an emission maximum (in CCOCC) of 587 nm. Also, the emission maximum stood at 616 nm (in CO); 600 nm (in Cc1ccccc1); 580 nm (in ClC(Cl)(Cl)Cl); 611 nm (in ClC(Cl)Cl); 614 nm (in O=[N+]([O-])c1ccccc1); 633 nm (in OCC(O)CO). Further, the emission maximum worked out at 628 nm (in OCc1ccccc1), 625 nm (in c1ccc2ncccc2c1), 601 nm (in c1ccccc1) and 617 nm (in c1ccncc1).

Take `CCCCCCN1C(=O)c2cc(-c3ccc(-n4c5ccccc5c5ccccc54)cc3)c(-c3ccc(-n4c5ccccc5c5ccccc54)cc3)cc2C1=O`: the emission maximum was 548 nm (in ClC(Cl)Cl) and 481 nm (in c1ccc2c(c1)c1ccccc1n2-c1ccc(-c2ccc(-n3c4ccccc4c4ccccc43)cc2)cc1).

Consider `CC1(C)c2ccccc2N(c2ccc(B3c4ccccc4Oc4ccccc43)cc2)c2ccccc21`, for which the emission maximum (in Cc1ccccc1) was found to be 472 nm.

On to `CCc1ccc(-n2c3ccccc3c3cc4c(cc32)c2ccccc2n4-c2ccc(CC)cc2)cc1`, for which, where the note is “in ClC(Cl)Cl”, the emission maximum worked out at 415 nm.

On to `c1ccc(-c2nc(-c3ccccc3)nc(-c3ccc(-n4c5ccccc5c5c6c(ccc54)C4(c5ccccc5-c5ccccc54)c4ccccc4-6)cc3)n2)cc1`, for which the emission maximum is, setting by setting: (in C1CCOC1) 488.19 nm; (in C1COCCO1) 453.7 nm; (in CN(C)C=O) 525.23 nm; (in Cc1ccccc1) 444 nm; (in ClC(Cl)Cl) 496.99 nm.

Consider `O=C(O)c1ccc2ccc3cccc4ccc1c2c34`, for which the emission maximum is listed as 387 nm (in C1CCOC1); 389 nm (in CC#N); 387 nm (in CCCCCC); 380 nm (in CCO); 388 nm (in CN(C)C=O); 380 nm (in CO). The emission maximum turned out to be 392 nm (in Cc1ccccc1) and 394 nm (in ClCCl).

Where the note is “in ClCCl”, `COc1ccc2c(c1)cc(C)c1c3ccccc3[nH]c21` had an emission maximum of 363 nm.

`COc1ccc(/C=C/c2nc(N3CCOCC3)c3c([n+]2[O-])CCCC3)cc1` yielded an emission maximum (in ClCCl) of 533 nm.

As for `Fc1ccc(C2=[N+]3C(=Nc4c5ccccc5c(-c5ccc(F)cc5)n4[B-]3(F)F)c3ccccc32)cc1`, where the note is “in ClCCl”, the emission maximum amounted to 724 nm.

Turning to `Cn1cc(-c2nc3ccccc3nc2/C=C/N2CCCC2)c2ccccc21`, the emission maximum (in CC#N) was found to be 556.97 nm, the emission maximum (in CC(C)=O) is on record as 465.99 nm and the emission maximum (in CCO) worked out at 548.05 nm.

The compound `Cc1cc(-c2nnc(-c3c(C(C)C)cc(C(C)C)cc3C(C)C)o2)ccc1-n1c2ccccc2c2ccccc21` came in with an emission maximum (in CCO) of 440 nm and an emission maximum (in Cc1ccccc1) of 375 nm.

As to `COc1cc(N(c2ccccc2)c2ccccc2)ccc1C=C(C#N)C#N`, the emission maximum by setting is: (in C1COCCO1) 548 nm; (in CC#N) 581 nm; (in CC(C)=O) 587 nm; (in CCOC(C)=O) 573 nm; (in CN(C)C=O) 558 nm; (in CO) 562 nm. The emission maximum worked out at 525 nm (in Cc1ccccc1), 567 nm (in ClC(Cl)Cl) and 590 nm (in ClCCl).

As to `CCC1=C(C)C2=C(C)c3c(I)c(I)cn3[B-](F)(F)[N+]2=C1C`, the emission maximum by setting is: (in C1CCCCC1) 538.5 nm; (in CC(C)=O) 533 nm; (in CCO) 534 nm; (in CCOC(C)=O) 533 nm; (in CO) 533.5 nm; (in OCC(F)(F)F) 530.5 nm.

`COc1ccc2cc(-c3cccc(-c4cc5ccc(OC)cc5oc4=O)c3)c(=O)oc2c1` registered an emission maximum (in ClC(Cl)Cl) of 426 nm.

Where the note is “in C1CCOC1”, `C1=Cc2ccccc2C(=Cc2ccc(C=C3c4ccccc4C=Cc4ccccc43)cc2)c2ccccc21` had an emission maximum of 405 nm.

For the compound `CCc1ccc(C2=[N+]3C(=Cc4c5ccc(OC)cc5c(-c5ccc(CC)s5)n4[B-]3(F)F)c3ccc(OC)cc32)s1`, for the setting “in ClCCl”, the emission maximum amounted to 780 nm.

Turning to `CCN1C(=CC2=C([O-])C(=Cc3[se]c4ccccc4[n+]3CC)C2=O)[Se]c2ccccc21`, the emission maximum runs as follows: (in CO) 688 nm; (in ClC(Cl)Cl) 714 nm.

`Cc1cc(C)c(C2=C(c3c(C)sc(-c4ccc(-c5nc(-c6ccccc6)c(-c6ccccc6)[nH]5)cc4)c3C)C(F)(F)C(F)(F)C2(F)F)s1` gave an emission maximum (in C1CCOC1) of 393 nm.

Compound `COC(=O)COc1ccc(/C=C/C2=[N+]3C(=C(c4ccc(N(C)C)cc4)c4c(C)cc(C)n4[B-]3(F)F)C(C)=C2)cc1` yielded an emission maximum (in CO) of 580 nm.
